Assay results taken from patent publication US7166296B2, “Pharmaceutical formulations and ligands for use therein; mimetics for UEA-1” (Sarlan, Ltd., priority 2001, dated 2007).
Converted amounts (≈) assume the structure as drawn. Non-standard residues stand in square brackets, D forms with d. Residues, ends and D or L forms follow the SMILES beside them. *: point of attachment. Galloyl = O=C(c1cc(O)c(O)c(O)c1)*; Dab = NCC[CH](N)C(=O)O

Key:
[1] = test system: UEA-1 binding sites on Caco-2 cell membrane preparations; assay: Single tier competition assay: inhibition of biotinylated UEA-1 binding, compound and biotinylated UEA-1 incubated together; set-up: species or system human
Description: (§1) The epithelial cell binding ability of compounds and mixtures obtained from synthetic combinatorial libraries was determined by competition assays. These assays were set up to measure the inhibition of binding of biotinylated UEA-1 to membrane preparations of the epithelial cell line Caco-2 (colon carcinoma cells-2), by compounds and mixtures of the combinatorial libraries. This cell line is a conventional model for epithelial cells.
(§2) Two competition inhibition assays were used in this case, namely single tier and two tier assays. These assays differed from each other in that in the single tier assay, the mixtures/compounds and the biotinylated UEA-1 were incubated together with the Caco-2 cell membrane preparations, while in case of the two-tier assay, the mixture/compounds were allowed to incubate alone with the cell membranes in the absence of biotinylated UEA-1, which was added in the next step. Addition of the extra step in the two-tier assay was to ensure that the compounds inhibiting the binding of biotinylated UEA-1 to the Caco-2 cell membranes were doing so by themselves binding to surface receptors on the Caco-2 cells and not to the biotinylated UEA-1. Each assay will be described in detail.
(§3) • 1. Confluent Caco-2 cell monolayers (grown in 75 cm^2 flasks for up to 1 week at 37° C. and 5% CO2) were washed twice in Dulbecco's PBS (DPBS). • 2. Cell monolayers were treated with 10 mM EDTA-DPBS for 5–10 min at 37° C. and cells were harvested by centrifugation at 1000 rpm for 5 min. • 3. Cells were washed 3 times in DPBS. • 4. […] The cells were homogenised for 30 sec. • 6. The homogenates were centrifuged in hard walled tubes at 40,000 rpm for 45 min at 4° C. • 7. […] The supernatant was removed and stored on ice. The procedure was repeated adding the second supernatant to the first. • 8. The protein concentration was determined using e.g. a Bio-Rad protein assay. • 9. All fractions were stored at −80° C. prior to use. Single Tier Assays: • 1. 96-well microtiter plates were coated with membrane preparations of Caco-2 cells either by allowing them to incubate on the plates for 2½ hours at room temperature or by incubating them overnight at 4° C. 100 μl of 10 μg/ml (in 0.05 M carbonate buffer, pH 9.6) of membrane preparation was added to each well. • 2. The plates were flicked out, patted dry and blocked with bovine serum albumin (BSA)/DPBS (200 μl/well) for 1 to 4 hours at room temperature after which they were washed three times in water. • 3. […] Control wells were also set up in which the Caco-2 cell membrane preparations were incubated with unconjugated UEA-1. […] Following overnight incubation the plates were washed thoroughly (3–6 times). The plates were flicked out, patted dry and biotinylated UEA-1 was detected with commercial Streptavidin conjugated to horseradish peroxidase (HRP) (CalBiochem). […] The plates were left to incubate for an hour at room temperature. • 6. The plates were then washed 3–6 times and the biotin-streptavidin binding was detected by adding an HRP substrate OPD (orthophenyl diamine) to each well. 100 μl/well of this substrate at a final concentration of 1.6 mg/ml was added to each well. Before adding to the wells, this substrate was activated by addition of 50 μl of 3% H2O2 per plate and the reaction was allowed to develop in the dark. • 7. The reaction was stopped by adding 50 μl of 4 N H2SO4 to each well after approximately 5–10 minutes or when sufficient colour had developed. The OD490 (absorbance at 490 nm) of each well was measured using a conventional 96 well plate reading spectrophotometer. Two Tier Assays: • 1. 96 well plates were coated with Caco-2 cell membrane preparations in the same manner as described in the single tier assay. • 2. […] 100 μl at these final concentrations were added to each well. • 4. The plates were then left to incubate overnight, a step that would allow the mixtures and compounds to interact with the Caco-2 cell membranes without the presence of the competitor (biotinylated UEA-1) itself. • 5. […]

[2] = test system: UEA-1 binding sites on Caco-2 cell membrane preparations; assay: Two tier competition assay: compound incubated alone with membranes, biotinylated UEA-1 added in next step; set-up: species or system human; conditions: for Avg % Inhib: Two Tier Assay, library TP1012
Description: as §1, §2, §3

[3] = library MSI 27, read-out: Single Tier Assay IC50
[4] = library MSI 27, read-out: Two Tier Assay IC50
[5] = Table 8, galloyl constructs, read-out: IC 50 (uM) 1st tier (converted)
[6] = Table 8, galloyl constructs, read-out: IC 50 (uM) 2nd tier

SMILES: CC(=O)NC(CCCCNC(=O)c1ccc(O)cc1)C(=O)NC(CCCCNC(=O)c1ccc(O)cc1)C(=O)NC(CCCCNC(=O)c1ccc(O)cc1)C(N)=O (stereo not shown) [Cpd 55]
- IC50 [1, 3]: 311 µM
- IC50 [2, 4]: 311 µM

SMILES: NC(=O)C(CCCNC(=O)c1cc(O)c(O)c(O)c1)NC(=O)c1cc(O)c(O)c(O)c1 (stereo not shown) [MSI 34 #3]
- IC 50 (ug/ml) 1st tier ([1]; Table 8, galloyl constructs): 2 µg/mL (≈ 4.59 µM)
- IC50 [1, 5]: 4 µM
- IC 50 (ug/ml) 2nd tier ([2]; Table 8, galloyl constructs): 0.7 µg/mL (≈ 1.61 µM)
- IC50 [2, 6]: 2 µM

SMILES: CC(=O)NC(CCCCNC(=O)c1cc(O)c(O)c(O)c1)C(=O)NC(CCCCNC(=O)c1cc(O)c(O)c(O)c1)C(N)=O (stereo not shown) [Cpd 38]
- IC 50 (ug/ml) 1st tier ([1]; Table 8, galloyl constructs): 54 µg/mL (≈ 87.1 µM)
- IC50 [1, 5]: 86 µM
- Single Tier Assay IC50 ([1]; library MSI 27): 87.78 µg/mL
- IC50 [1, 3]: 142 µM
- IC 50 (ug/ml) 2nd tier ([2]; Table 8, galloyl constructs): 48 µg/mL (≈ 77.5 µM)
- IC50 [2, 6]: 77 µM
- Two Tier Assay IC50 ([2]; library MSI 27): 54.27 µg/mL
- IC50 [2, 4]: 87.6 µM

SMILES: COc1cc(C(=O)NCCCCC(NC(=O)C(CCCCNC(=O)c2cc(OC)c(OC)c(OC)c2)NC(=O)C(CCCCNC(=O)c2cc(OC)c(OC)c(OC)c2)NC(C)=O)C(N)=O)cc(OC)c1OC (stereo not shown) [Cpd 52]
- Single Tier Assay IC50 ([1]; library MSI 27): 174.80 µg/mL
- IC50 [1, 3]: 170 µM
- Two Tier Assay IC50 ([2]; library MSI 27): 226.70 µg/mL
- IC50 [2, 4]: 221 µM

SMILES: COc1cc(C(=O)NCCCCC(NC(=O)c2cc(OC)c(O)c(OC)c2)C(N)=O)cc(OC)c1O (stereo not shown) [Cpd 1]
- IC50 [1, 3]: 495 µM
- IC50 [2, 4]: 495 µM

SMILES: COc1cc(C(=O)NCCCCC(NC(=O)C(CCCCNC(=O)c2cc(OC)c(O)c(OC)c2)NC(=O)C(CCCCNC(=O)c2cc(OC)c(O)c(OC)c2)NC(C)=O)C(N)=O)cc(OC)c1O (stereo not shown) [Cpd 49]
- Single Tier Assay IC50 ([1]; library MSI 27): 118.00 µg/mL
- IC50 [1, 3]: 120 µM
- Two Tier Assay IC50 ([2]; library MSI 27): 108.80 µg/mL
- IC50 [2, 4]: 111 µM

SMILES: CC(=O)NC(CCNC(=O)c1cc(O)c(O)c(O)c1)C(=O)NC(CCNC(=O)c1cc(O)c(O)c(O)c1)C(=O)NC(CCNC(=O)c1cc(O)c(O)c(O)c1)C(=O)NC(CCNC(=O)c1cc(O)c(O)c(O)c1)C(N)=O (stereo not shown) [MSI 34 #22] (Ac-[Dab](Galloyl)[Dab](Galloyl)[Dab](Galloyl)[Dab](Galloyl)-NH2; configuration not given here)
- IC 50 (ug/ml) 1st tier ([1]; Table 8, galloyl constructs): 3 µg/mL (≈ 2.81 µM)
- IC50 [1, 5]: 3 µM
- IC 50 (ug/ml) 2nd tier ([2]; Table 8, galloyl constructs): 1 µg/mL (≈ 0.936 µM)
- IC50 [2, 6]: 1 µM

SMILES: CCCC[C@@H](CNC)N(C)C[C@@H](CC1CCCCC1)NC(=O)c1cc(O)c(O)c(O)c1 [compound 92]
- Avg % Inhib ([2]; 50 μg/ml): 54.8899%
- Avg % Inhib ([2]; 250 μg/ml): 67.7%

SMILES: CCCCC(CNC)N(C)CC(CC1CCCCC1)NC(=O)c1cc(O)c(O)c(O)c1 (stereo not shown) [compound 86]
- Avg % Inhib ([2]; 50 μg/ml): 61.61%
- Avg % Inhib ([2]; 250 μg/ml): 76.23%

SMILES: CCCC[C@@H](CNC)N(C)C[C@H](CC1CCCCC1)NC(=O)c1cc(O)c(O)c(O)c1 [compound 96]
- Avg % Inhib ([2]; 50 μg/ml): 42.93%
- Avg % Inhib ([2]; 250 μg/ml): 65.78%

SMILES: CNC[C@H](Cc1ccc(F)cc1)N(C)C[C@H](Cc1ccc(F)cc1)NC(=O)Cc1cccc(C(F)(F)F)c1 [compound 144]
- Avg % Inhib ([2]; 50 μg/ml): 42.26%
- Avg % Inhib ([2]; 250 μg/ml): 66.71%

SMILES: CNC[C@H](Cc1ccc(F)cc1)N(C)C[C@H](Cc1ccc(F)cc1)NC(=O)Cc1ccc(Cl)c(Cl)c1 [compound 141]
- Avg % Inhib ([2]; 50 μg/ml): 41.43%
- Avg % Inhib ([2]; 250 μg/ml): 72.64%

SMILES: CNC[C@H](CC(C)C)N(C)C[C@H](Cc1ccccc1)NC(=O)c1cc(O)c(O)c(O)c1 [compound 125]
- Avg % Inhib ([2]; 50 μg/ml): 61.02%
- Avg % Inhib ([2]; 250 μg/ml): 77.78%
